Assay results as given in paper PMC6149822, “A New Series of Pyrrole-Based Chalcones: Synthesis and Evaluation of Antimicrobial Activity, Cytotoxicity, and Genotoxicity” (Molecules : A Journal of Synthetic Chemistry and Natural …, 2017).
Values after ≈ are worked out from the molar mass of the structure shown. Marks after values point to notes of the source that are not given here.

Columns and labels:
[1] = system: K. pneumoniae (ATCC 700603); experiment: Microdilution susceptibility assay (MIC); format: cell-based; conditions: Klebsiella pneumoniae, ATCC700603
Experimental: (§1) Compounds 1–10 were screened for their antimicrobial activity against gram-negative bacteria, gram-positive bacteria, and yeasts, listed in Table 1. Bacteria were grown in Mueller-Hinton Broth and yeasts were grown in Sabouraud Dextrose Broth (SDB) during experiments. Overnight cultures were prepared routinely by subculturing of stock culture onto Mueller-Hinton Agar for bacteria and Sabouraud Dextrose Agar for yeasts.
(§2) Microdilution susceptibility assay was used for the determination of antibacterial and anticandidal efficacy of compounds 1–10. Chloramphenicol and ketoconazole were used as positive controls for bacteria and yeasts, respectively. All experiments were designed according to the Clinical Laboratory Standards Institute (CLSI). All chemicals were dissolved in dimethyl sulfoxide (DMSO) to obtain stock solution (10 mg/mL). Two-fold serial dilutions (800, 400, 200...0.78 µg/mL) of the compounds were prepared from stock solutions with dH2O. 100 µL of each solution was transferred to 96-well microtiter plates and 100 µL of 10^6 CFU/mL of bacteria and 2 × 10^3 of CFU/mL yeast were added to related wells. As negative controls, wells including microorganisms without agents and wells including agents without microorganisms were used. The plates were kept at 35 °C for 18–20 h and the growth was determined with resazurin (20 mg/mL). Assays were carried out in triplicate.

[2] = system: E. coli (ATCC 25922); experiment: Microdilution susceptibility assay (MIC); format: cell-based; conditions: Escherichia coli, ATCC25922
Experimental: as §1, §2

[3] = system: C. albicans (ATCC 90028); experiment: Microdilution susceptibility assay (MIC); format: cell-based; conditions: Candida albicans, ATCC90028
Experimental: as §1, §2

[4] = system: E. faecalis (ATCC 51299); experiment: Microdilution susceptibility assay (MIC); format: cell-based; conditions: Enterococcus faecalis, ATCC51299
Experimental: as §1, §2

[5] = system: E. faecalis (ATCC 29212); experiment: Microdilution susceptibility assay (MIC); format: cell-based; conditions: Enterococcus faecalis, ATCC29212
Experimental: as §1, §2

[6] = system: S. aureus (ATCC 25923); experiment: Microdilution susceptibility assay (MIC); format: cell-based; conditions: Staphylococcus aureus, ATCC25923
Experimental: as §1, §2

[7] = system: Salmonella typhimurium TA100; experiment: Ames MPF mutagenicity assay; format: cell-based; conditions: for Revertants fold increase (over baseline) TA 100 S9+: with S9; for Revertants fold increase (over baseline) TA 100 S9−: without S9; for Genotoxicity classification (Ames MPF): TA100, with/without metabolic activation, 0.16-5 mg/mL
Experimental: An Ames MPF 98/100 mutagenicity assay sample kit (Xenometrix AG, Allschwil, Switzerland) was used to evaluate the genotoxicity of compounds 7 and 9 as described previously. Salmonella typhimurium TA98 (frameshift mutations) and TA100 (base-pair substitutions) strains were used and the compounds were tested in concentrations between […] and 5000 μg/mL (5.0, 2.5, 1.25, 0.625, 0.3125, 0.156 mg/mL in DMSO) in accordance with the guidelines. Mutagenity was tested with/without metabolic activation with an Aroclor™-1254 induced male Sprague–Dawley rat liver microsomal enzyme (S9) mix (Xenometrix AG, Allschwil, Switzerland). 2-Nitrofluorene (2.0 μg/mL) and 4-nitroquinoline N-oxide (0.1 μg/mL) were used without S9, and 1.0 μg/mL and 2.5 μg/mL of 2-aminoanthracene solutions were used with S9 against TA98 and TA100 as positive controls, respectively. At the end of each experiment, yellow wells were counted as positive and compared with the negative control. Fold induction over the negative control and fold induction over the baseline were calculated as described: Fold induction over the negative control is the ratio of the mean number of positive wells for the dose concentration divided by the mean number of positive wells for the zero-dose (negative) control. Fold induction over the baseline is the ratio of the mean number of positive wells for the dose concentration divided by the zero-dose baseline. The zero-dose baseline is obtained by adding one standard deviation to the mean number of positive wells of the zero-dose control. If the baseline is less than one, the value is set to one for calculation.
Genotoxicity was determined according to the previous criteria. For a baseline value of ≤3, significant increases between 2- and 3-fold of the baseline were classified as weak mutagens, and increases ≥3-fold of the baseline were classified as mutagens. For a baseline value of >3, significant increases between 1.5- and 2.5-fold of the baseline were classified as weak mutagens, and increases ≥2.5-fold of the baseline were classified as mutagens. At least two adjacent doses with significant increases, or a significant increase at the highest dose level, should be observed for a mutagenic compound. All of the doses were compared according to Student’s t-test at p < 0.05 for statistical significance.

[8] = system: C. parapsilosis (ATCC 22019); experiment: Microdilution susceptibility assay (MIC); format: cell-based, Candida parapsilosis; conditions: Lodderomyces parapsilosis, ATCC22019
Experimental: as §1, §2

[9] = system: C. glabrata (ATCC 90030); experiment: Microdilution susceptibility assay (MIC); format: cell-based, Candida glabrata; conditions: Nakaseomyces glabratus, ATCC90030
Experimental: as §1, §2

[10] = system: C. krusei cells; experiment: Flow cytometry live/dead analysis (TO/PI); format: cell-based, Candida krusei; conditions: 25 µg/mL, 4 h
Text: In order to investigate the effects of compounds 7 and 9 on the integrity of C. krusei cells, flow cytometry was used with BD cell viability kits. Live cells are impermeable to dyes such as PI since they have intact membranes. TO is a permeant dye and enters live and dead cells to varying degrees. The fluorescent signal from TO in viable cells allows their enumeration, even when debris in the cell preparation contaminates a scatter gate around the cells. Thus, the combination of these two dyes provides a rapid and reliable method for discriminating live and dead eukaryotic cells, including yeasts. All steps were performed according to manufacturers’ recommendations. Briefly, Candida cells were cultured at 35 °C in SDB until late log phase. The cells were centrifuged and washed with phosphate-buffered saline (PBS) at pH = 7.0. Suspensions containing 2 × 10^3 cells/mL were incubated with compounds 7 and 9, and ketoconazole as a reference drug, for 4 h at 35 °C, with shaking (200 r.p.m.). […] Suspensions of treated and untreated cells were incubated for 30 min in the presence of 2 µL of PI and 2 µL of TO, in the dark, at room temperature. The cell suspensions were analysed in a BD Accuri C6 flow cytometer (Becton-Dickinson, Mansfield, MA, USA). The cell scattergram (forward scatter: FS, side scatter: SS), the autofluorescence (without fluorocrome), and the intensity of fluorescence at FL1 (green fluorescence, 525 nm) and FL2 (red fluorescence, 620 nm) were recorded using a logarithmic scale.

## Cn1cccc1C(=O)C=Cc1ccc(-c2cc(Cl)ccc2Cl)o1 [Compound 9, 1-(1-Methyl-1H-pyrrol-2-yl)-3-(5-(2,5-dichlorophenyl)furan-2-yl)prop-2-en-1-one]
[1]
  MIC: 200 µg/mL (≈ 578 µM)
[2]
  MIC: 100 µg/mL (≈ 289 µM)
[3]
  MIC: 200 µg/mL (≈ 578 µM)
[4]
  MIC: 400 µg/mL (≈ 1160 µM)
[5]
  MIC: 200 µg/mL (≈ 578 µM)
[6]
  MIC: 200 µg/mL (≈ 578 µM)
[7]; 0.16 mg/mL
  Revertants fold increase (over baseline) TA 100 S9+: 0.51
  Revertants fold increase (over baseline) TA 100 S9−: 0.48
[7]; 0.31 mg/mL
  Revertants fold increase (over baseline) TA 100 S9+: 0.73
  Revertants fold increase (over baseline) TA 100 S9−: 0.54
[7]; 0.63 mg/mL
  Revertants fold increase (over baseline) TA 100 S9+: 0.68
  Revertants fold increase (over baseline) TA 100 S9−: 0.54
[7]; 1.25 mg/mL
  Revertants fold increase (over baseline) TA 100 S9+: 0.68
  Revertants fold increase (over baseline) TA 100 S9−: 0.54
[7]; 2.5 mg/mL
  Revertants fold increase (over baseline) TA 100 S9+: 0.79
  Revertants fold increase (over baseline) TA 100 S9−: 0.30 *
[7]; 5 mg/mL
  Revertants fold increase (over baseline) TA 100 S9+: 0.90
  Revertants fold increase (over baseline) TA 100 S9−: 0.12 *
[7]
  Genotoxicity classification (Ames MPF): non-genotoxic
[8]
  MIC: 50 µg/mL (≈ 144 µM)
[9]
  MIC: 100 µg/mL (≈ 289 µM)
[10]
  Dead Cell %: 15.9%
  Live Cell %: 83.9%

## Cn1cccc1C(=O)C=Cc1ccc(-c2ccc(Cl)cc2)o1 [Compound 7, 1-(1-Methyl-1H-pyrrol-2-yl)-3-(5-(4-chlorophenyl)furan-2-yl)prop-2-en-1-one]
[1]
  MIC: 100 µg/mL (≈ 321 µM)
[2]
  MIC: 400 µg/mL (≈ 1280 µM)
[3]
  MIC: 50 µg/mL (≈ 160 µM)
[4]
  MIC: 200 µg/mL (≈ 642 µM)
[5]
  MIC: 100 µg/mL (≈ 321 µM)
[6]
  MIC: 400 µg/mL (≈ 1280 µM)
[7]; 0.16 mg/mL
  Revertants fold increase (over baseline) TA 100 S9+: 0.56
  Revertants fold increase (over baseline) TA 100 S9−: 0.44
[7]; 0.31 mg/mL
  Revertants fold increase (over baseline) TA 100 S9+: 0.68
  Revertants fold increase (over baseline) TA 100 S9−: 0.56
[7]; 0.63 mg/mL
  Revertants fold increase (over baseline) TA 100 S9+: 0.79
  Revertants fold increase (over baseline) TA 100 S9−: 0.67
[7]; 1.25 mg/mL
  Revertants fold increase (over baseline) TA 100 S9+: 0.62
  Revertants fold increase (over baseline) TA 100 S9−: 0.33
[7]; 2.5 mg/mL
  Revertants fold increase (over baseline) TA 100 S9+: 0.90
  Revertants fold increase (over baseline) TA 100 S9−: 0.33
[7]; 5 mg/mL
  Revertants fold increase (over baseline) TA 100 S9+: 0.79
  Revertants fold increase (over baseline) TA 100 S9−: 0.44
[7]
  Genotoxicity classification (Ames MPF): non-genotoxic
[8]
  MIC: 100 µg/mL (≈ 321 µM)
[9]
  MIC: 100 µg/mL (≈ 321 µM)
[10]
  Dead Cell %: 20.0%
  Live Cell %: 79.6%
